# Species: Rattus norvegicus
# Test: DrugMatrix - Regimen: Daily Repeat
# Type: toxicity, organism-based, Sprague-Dawley
# Set-up: regimen Daily Repeat, gender Male, age 6-8 weeks
# Conditions: in vivo, po, route oral GAVAGE, vehicle .5 % CMC; for URIC ACID / ALANINE AMINOTRANSFERASE / ALBUMIN / ALKALINE PHOSPHATASE / ASPARTATE AMINOTRANSFERASE / BLOOD UREA NITROGEN / CARBON DIOXIDE / CHLORIDE / CHOLESTEROL / CREATINE PHOSPHOKINASE / CREATININE / GLUCOSE / LACTATE DEHYDROGENASE / LIPASE / PHOSPHORUS / POTASSIUM / SODIUM / TOTAL BILIRUBIN / TOTAL PROTEIN: tissue Plasma; for ABSOLUTE BASOPHIL / ABSOLUTE EOSINOPHIL / ABSOLUTE LYMPHOCYTE / ABSOLUTE MONOCYTE / ABSOLUTE SEGMENTED NEUTROPHIL / BASOPHIL / EOSINOPHIL / ERYTHROCYTE COUNT / HEMATOCRIT / HEMOGLOBIN / LEUKOCYTE COUNT / LYMPHOCYTE / MEAN CORPUSCULAR HEMOGLOBIN / MEAN CORPUSCULAR HEMOGLOBIN CONCENTRATION / MEAN CORPUSCULAR VOLUME / MONOCYTE / NEUTROPHIL / NUCLEATED RED BLOOD CELLS / PLATELET COUNT: tissue Blood
# [1] = 3 mg/kg, 120 h, dose level Low, time 5 day
# [2] = 29 mg/kg, 72 h, dose level High, time 3 day
# [3] = 29 mg/kg, 120 h, dose level High, time 5 day
smiles,measurement,setting,value
O=c1[nH]cc(F)c(=O)[nH]1 [FLUOROURACIL],URIC ACID,"3 mg/kg, 72 h, dose level Low, time 3 day",2.6 mg/dL
same,ABSOLUTE BASOPHIL,[1],0 CELLS/uL
same,ABSOLUTE EOSINOPHIL,[1],0 CELLS/uL
same,ABSOLUTE LYMPHOCYTE,[1],14436 CELLS/uL
same,ABSOLUTE MONOCYTE,[1],30.67 CELLS/uL
same,ABSOLUTE SEGMENTED NEUTROPHIL,[1],1566.67 CELLS/uL
same,BASOPHIL,[1],0%
same,EOSINOPHIL,[1],0%
same,ERYTHROCYTE COUNT,[1],6.23 x10E6/uL
same,HEMATOCRIT,[1],38.2%
same,HEMOGLOBIN,[1],14.4 G/DL
same,LEUKOCYTE COUNT,[1],16.03 x10E3/uL
same,LYMPHOCYTE,[1],88.67%
same,MEAN CORPUSCULAR HEMOGLOBIN,[1],23.13 pg
same,MEAN CORPUSCULAR HEMOGLOBIN CONCENTRATION,[1],37.73 G/DL
same,MEAN CORPUSCULAR VOLUME,[1],61.3 fL
same,MONOCYTE,[1],0.33%
same,NEUTROPHIL,[1],11%
same,NUCLEATED RED BLOOD CELLS,[1],0 /100WBC
same,PLATELET COUNT,[1],1198.67 x10E3/uL
same,ALANINE AMINOTRANSFERASE,[1],42.67 u/L
same,ALBUMIN,[1],4.47 G/DL
same,ALKALINE PHOSPHATASE,[1],303.33 u/L
same,ASPARTATE AMINOTRANSFERASE,[1],79 u/L
same,BLOOD UREA NITROGEN,[1],16 mg/dL
same,CARBON DIOXIDE,[1],27.67 mmol/L
same,CHLORIDE,[1],99.67 MEQ/L
same,CHOLESTEROL,[1],71 mg/dL
same,CREATINE PHOSPHOKINASE,[1],253.67 u/L
same,CREATININE,[1],0.22 mg/dL
same,GLUCOSE,[1],146 mg/dL
same,LACTATE DEHYDROGENASE,[1],229 u/L
same,LIPASE,[1],8.33 u/L
same,PHOSPHORUS,[1],11.5 mg/dL
same,POTASSIUM,[1],6.67 MEQ/L
same,SODIUM,[1],144.17 MEQ/L
same,TOTAL BILIRUBIN,[1],0.2 mg/dL
same,URIC ACID,[1],1.6 mg/dL
same,ABSOLUTE BASOPHIL,[2],0 CELLS/uL
same,ABSOLUTE EOSINOPHIL,[2],63.33 CELLS/uL
same,ABSOLUTE LYMPHOCYTE,[2],11413 CELLS/uL
same,ABSOLUTE MONOCYTE,[2],90.33 CELLS/uL
same,ABSOLUTE SEGMENTED NEUTROPHIL,[2],633.33 CELLS/uL
same,BASOPHIL,[2],0%
same,EOSINOPHIL,[2],0.67%
same,ERYTHROCYTE COUNT,[2],5.41 x10E6/uL
same,HEMATOCRIT,[2],34.9%
same,HEMOGLOBIN,[2],13.17 G/DL
same,LEUKOCYTE COUNT,[2],12.2 x10E3/uL
same,LYMPHOCYTE,[2],93.67%
same,MEAN CORPUSCULAR HEMOGLOBIN,[2],24.33 pg
same,MEAN CORPUSCULAR HEMOGLOBIN CONCENTRATION,[2],37.73 G/DL
same,MEAN CORPUSCULAR VOLUME,[2],64.5 fL
same,MONOCYTE,[2],0.67%
same,NEUTROPHIL,[2],5%
same,NUCLEATED RED BLOOD CELLS,[2],0.33 /100WBC
same,PLATELET COUNT,[2],1461.33 x10E3/uL
same,ALANINE AMINOTRANSFERASE,[2],43.33 u/L
same,ALBUMIN,[2],4.47 G/DL
same,ALKALINE PHOSPHATASE,[2],451.67 u/L
same,ASPARTATE AMINOTRANSFERASE,[2],81.67 u/L
same,BLOOD UREA NITROGEN,[2],15.67 mg/dL
same,CARBON DIOXIDE,[2],26.33 mmol/L
same,CHLORIDE,[2],101.67 MEQ/L
same,CHOLESTEROL,[2],58.67 mg/dL
same,CREATINE PHOSPHOKINASE,[2],429.33 u/L
same,CREATININE,[2],0.19 mg/dL
same,GLUCOSE,[2],206.33 mg/dL
same,LACTATE DEHYDROGENASE,[2],150.67 u/L
same,LIPASE,[2],8 u/L
same,PHOSPHORUS,[2],12.07 mg/dL
same,POTASSIUM,[2],6.46 MEQ/L
same,SODIUM,[2],143.2 MEQ/L
same,TOTAL BILIRUBIN,[2],0.17 mg/dL
same,TOTAL PROTEIN,[2],6.07 G/DL
same,URIC ACID,[2],2.17 mg/dL
same,ABSOLUTE BASOPHIL,[3],0 CELLS/uL
same,ABSOLUTE EOSINOPHIL,[3],58 CELLS/uL
same,ABSOLUTE LYMPHOCYTE,[3],4679.33 CELLS/uL
same,ABSOLUTE MONOCYTE,[3],33 CELLS/uL
same,ABSOLUTE SEGMENTED NEUTROPHIL,[3],263 CELLS/uL
same,BASOPHIL,[3],0%
same,EOSINOPHIL,[3],1%
same,ERYTHROCYTE COUNT,[3],6.26 x10E6/uL
same,HEMATOCRIT,[3],39%
same,HEMOGLOBIN,[3],15.3 G/DL
same,LEUKOCYTE COUNT,[3],5.03 x10E3/uL
same,LYMPHOCYTE,[3],93%
same,MEAN CORPUSCULAR HEMOGLOBIN,[3],24.43 pg
same,MEAN CORPUSCULAR HEMOGLOBIN CONCENTRATION,[3],39.23 G/DL
same,MEAN CORPUSCULAR VOLUME,[3],62.37 fL
same,MONOCYTE,[3],0.67%
same,NEUTROPHIL,[3],5.33%
same,NUCLEATED RED BLOOD CELLS,[3],0 /100WBC
same,PLATELET COUNT,[3],964.67 x10E3/uL
same,ALANINE AMINOTRANSFERASE,[3],23.67 u/L
same,ALBUMIN,[3],4.03 G/DL
same,ALKALINE PHOSPHATASE,[3],148.33 u/L
same,ASPARTATE AMINOTRANSFERASE,[3],75.67 u/L
same,BLOOD UREA NITROGEN,[3],18.67 mg/dL
same,CARBON DIOXIDE,[3],25 mmol/L
same,CHLORIDE,[3],102.67 MEQ/L
same,CHOLESTEROL,[3],89.67 mg/dL
same,CREATINE PHOSPHOKINASE,[3],751.33 u/L
same,CREATININE,[3],0.12 mg/dL
same,GLUCOSE,[3],106.67 mg/dL
same,LACTATE DEHYDROGENASE,[3],166.33 u/L
same,LIPASE,[3],7.33 u/L
same,PHOSPHORUS,[3],7.93 mg/dL
same,POTASSIUM,[3],5.82 MEQ/L
same,SODIUM,[3],150.33 MEQ/L
same,TOTAL BILIRUBIN,[3],0.17 mg/dL
same,TOTAL PROTEIN,[3],5.57 G/DL
same,URIC ACID,[3],0.93 mg/dL

# Reference: ChEMBL document CHEMBL3885881, “DrugMatrix”
